Measured values taken from US7807877B2, “Genetic sequences having methyltransferase activity and uses therefor” (International Flower Developments Pty. Ltd., priority 2002, dated 2010).
“And” between values parts separate entries of the source, which are not always exact repeats. Equal entries are not always repeated.

Experiments:
[1] = Reconstruction experiments: anthocyanins added to petal juice of Medeo roses; assay type: physicochemical, Rosa hybrida; settings: pH 4.9
Method: The rose cultivar Medeo generally produces cream-colored to pale apricot flowers (RHSCC 158C to 159A). […] The estimated vacuolar pH of Medeo petals is around 4.6. The petal juice of Medeo roses was extracted by grinding one petal with 50 μL of water using a mortar and pestle. The petal juice was collected and mixed with 10-20 μL of 1-2 mg/g delphinidin 3-glucoside, delphinidin 3,5-diglucoside and malvidin 3,5-diglucoside. The colors observed were described according to the Royal Horticultural Society Color Charts (RHSCC) (The Royal Horticultural Society, London) (Table 8).

Petunia FMT (E20) [2] = assay: Methyltransferase assay (14C-SAM, TLC) of crude homogenate of E. coli containing pCGP3086; assay type: biochemical, Petunia hybrida; parameters: key to Petunidin (product on TLC) / Malvidin (product on TLC): yes = detection of product on TLC; no = no reaction observed as determined by absence of product
Method: 10 mLs of LB containing ampicillin at 100 μg/mL and kanamycin at 25 μg/mL. (LB/Amp100+Kan25) were inoculated with a single colony of pCGP3086 or pQE30 in M15 (pREP4) cells. […] IPTG was then added to a final concentration of 1 mM and the culture was further incubated at 30° C. with shaking for 8 hours. The cells were pelleted by centrifugation at 3500 rpm for 10 minutes at 4° C. The pellet was resuspended in 1 mL of 0.1 M NaPi, pH 7.5, 4 mM MgCl2. […] The mixture was then sonicated for two bursts of 10 seconds at output 2-3 and then incubated on ice for 30 minutes. The cell debris was pelleted by centrifugation at 14,000 rpm for 20 minutes at 4° C. The supernatant was passed through a NAP-10 column (Pharmacia) and 1.5 mL of the sample collected in 0.1 M NaPi, pH 7.5, 4 mM MgCl2. […] (1983), supra. Methyltransferase assays were set up according to Table 10 in a total reaction volume of 50 μL. […] The assay reactions were incubated at 30° C. for 30 minutes. Fifty microlitres of a chloroform mix (CHCl3:methanol/1% HCl, 2:1) was added and the mixture was then vortexed to stop the reactions. […] The tube was then placed in a boiling waterbath for 30 minutes and the contents subsequently desiccated under vacuum.

Torenia FMT (TFMT) [3] = assay: Methyltransferase assay (14C-SAM, TLC) of crude homogenate of E. coli containing pCGP3090; assay type: biochemical, Torenia hybrida; parameters: key to Petunidin (product on TLC) / Malvidin (product on TLC): yes = detection of product on TLC; no = no reaction observed as determined by absence of product
Method: (§1) The assay reactions were incubated at 30° C. for 30 minutes. Fifty microlitres of a chloroform mix (CHCl3:methanol/1% HCl, 2:1) was added and the mixture was then vortexed to stop the reactions. The phases were separated by centrifugation at 13,000 rpm for 5 minutes and 50 μL of the upper phase was transferred into a clean tube and the contents subsequently hydrolysed by the addition of 12.5 μL of 10M HCl. The tube was then placed in a boiling waterbath for 30 minutes and the contents subsequently desiccated under vacuum. The residue was resuspended in 2-3 μL of methanol/1% HCl and spotted onto a TLC plate alongside standard samples of petunidin, malvidin and delphinidin. The anthocyanidins were separated in a Forestal system (HOAc:water:HCl; 30:10:3) (Markham, Techniques of flavonoid identification, Academic Press, London, 1982) and the TLC was exposed to an autoradiographic film (Kodak) for 16 hours at −70° C.
The confirmation of recombinant protein expression and preparation of crude protein extracts and subsequent determination of methyltransferase activity were as described for the analysis of the Petunia E20 cDNA clone (PFMT) (described above in Example 7).
The enzyme activities of the protein encoded by the Torenia FMT cDNA clone in pCGP3090 along with that of the Petunia FMT (E20) clone in pCGP3086 were assessed using the substrates delphinidin 3-glucoside and delphinidin 3-rutinoside under assay conditions as described in Jonsson et al. (1983), supra and in Example 7 of this specification.
Methyltransferase assays were set up according to Table 15 in a total reaction volume of 50 μL.
Reaction conditions were as described previously (Example 7).

Petunia FMT (E20) [4] = assay: HPLC assay of methyltransferase activity, E. coli extract containing pCGP3086; assay type: biochemical, Petunia hybrida
Method: as §1
(§2) Anthocyanidins in the reaction mixture were analysed by HPLC via gradient elution using gradient conditions of 50% B to 60% B over 10 minutes, then 60% B for 10 minutes and finally 60% B to 100% B over 5 minutes where solvent A consisted of TFA:H2O (5:995) and solvent B consisted of acetonitrile:TFA:H2O (500:5:495). An Asahi Pac ODP-50 cartridge column (250 mm×4.6 mm ID) was used for the reversed phase chromatographic separations. […].
(§3) The enzyme activities of the peptides encoded by Petunia and Torenia FMT cDNA clones in pCGP3086 and pCGP3090, respectively were further assessed using the substrates delphinidin 3-glucoside and delphinidin 3-rutinoside and delphinidin 3,5-diglucoside under assay conditions as previously described (Table 15, Example 9) except that the ^14C-labelled SAM was replaced with non radioactive SAM at 2 mg/mL and the substrates (delphinidin 3-glucoside and delphinidin 3-rutinoside and delphinidin 3,5-diglucoside) at 2 mg/mL.

Torenia FMT (TFMT) [5] = assay: HPLC assay of methyltransferase activity, E. coli extract containing pCGP3090; assay type: biochemical, Torenia hybrida
Method: as §1, §2, §3

[6] = pCGP3086 crude homogenate + 14C-SAM (Table 16, positive control)
[7] = pCGP3086 crude homogenate + 14C-SAM, 30° C., 30 minutes (Table 11)
[8] = pCGP3090 crude homogenate + 14C-SAM (Table 16)
[9] = pCGP3086 (PFMT), percentage of total anthocyanidins, duplicate a/b
[10] = pCGP3086, substrate 2 mg/mL, SAM 2 mg/mL, duplicate a/b
[11] = pCGP3090 (TFMT), percentage of total anthocyanidins, duplicate a/b
[12] = pCGP3090, substrate 2 mg/mL, SAM 2 mg/mL, duplicate a/b

OC[C@H]1O[C@@H](Oc2cc3c(O)cc(O)cc3[o+]c2-c2cc(O)c(O)c(O)c2)[C@H](O)[C@@H](O)[C@@H]1O [D3G, delphinidin 3-glucoside]
COLOR [1]: red-purple
RHSCC# [1]: 74A
Petunidin and malvidin, the methylated derivatives of delphinidin, in assay reactions (Petunia FMT (E20) [2]; crude homogenates from pCGP3086 cells, 14C-SAM): detected
Malvidin (product on TLC) (Petunia FMT (E20) [2]; [6]): yes
Petunidin (product on TLC) (Petunia FMT (E20) [2]; [6]): yes
Malvidin (product on TLC) (Petunia FMT (E20) [2]; [7]): yes
Petunidin (product on TLC) (Petunia FMT (E20) [2]; [7]): yes
Petunidin and malvidin, the methylated derivatives of delphinidin, in assay reactions (Torenia FMT (TFMT) [3]; crude homogenates from pCGP3090 (containing TFMT), 14C-SAM): detected
Malvidin (product on TLC) (Torenia FMT (TFMT) [3]; [8]): yes
Petunidin (product on TLC) (Torenia FMT (TFMT) [3]; [8]): yes
product of flavonoid methyltransferase activity with the substrate (Petunia FMT (E20) [4]; Petunia FMT (E20) in pCGP3086, to a lesser degree malvidin): predominantly petunidin
Predominant FMT Activity (Petunia FMT (E20) [4]; pCGP3086): 3′FMT
% of anthocyanidin detected cya (Petunia FMT (E20) [4]; [9]): 11.8% and 9.7%
% of anthocyanidin detected del (Petunia FMT (E20) [4]; [9]): 35.5% and 31.4%
% of anthocyanidin detected mal (Petunia FMT (E20) [4]; [9]): 6.0% and 6.5%
% of anthocyanidin detected peo (Petunia FMT (E20) [4]; [9]): 2.7% and 3.0%
% of anthocyanidin detected pet (Petunia FMT (E20) [4]; [9]): 44.0% and 49.4%
Anthocyanidins (mg/g) Cya (Petunia FMT (E20) [4]; [10]): 2.4 mg/g and 2.0 mg/g
Anthocyanidins (mg/g) Del (Petunia FMT (E20) [4]; [10]): 7.1 mg/g and 6.4 mg/g
Anthocyanidins (mg/g) Mal (Petunia FMT (E20) [4]; [10]): 1.2 mg/g and 1.3 mg/g
Anthocyanidins (mg/g) Peo (Petunia FMT (E20) [4]; [10]): 0.5 mg/g and 0.6 mg/g
Anthocyanidins (mg/g) Pet (Petunia FMT (E20) [4]; [10]): 8.8 mg/g and 10.0 mg/g
product of flavonoid methyltransferase activity with the substrate (Torenia FMT (TFMT) [5]; Torenia FMT in pCGP3090, to a lesser degree petunidin): predominantly malvidin
Predominant FMT Activity (Torenia FMT (TFMT) [5]; pCGP3090): 3′5′FMT
% of anthocyanidin detected cya (Torenia FMT (TFMT) [5]; [11]): 4.5% and 3.6%
% of anthocyanidin detected del (Torenia FMT (TFMT) [5]; [11]): 7.8%
% of anthocyanidin detected mal (Torenia FMT (TFMT) [5]; [11]): 74.0% and 75.2%
% of anthocyanidin detected peo (Torenia FMT (TFMT) [5]; [11]): 8.5% and 8.0%
% of anthocyanidin detected pet (Torenia FMT (TFMT) [5]; [11]): 5.1% and 5.4%
Anthocyanidins (mg/g) Cya (Torenia FMT (TFMT) [5]; [12]): 1.0 mg/g and 0.9 mg/g
Anthocyanidins (mg/g) Del (Torenia FMT (TFMT) [5]; [12]): 1.8 mg/g and 1.9 mg/g
Anthocyanidins (mg/g) Mal (Torenia FMT (TFMT) [5]; [12]): 17.1 mg/g and 18.1 mg/g
Anthocyanidins (mg/g) Peo (Torenia FMT (TFMT) [5]; [12]): 2.0 mg/g and 1.9 mg/g
Anthocyanidins (mg/g) Pet (Torenia FMT (TFMT) [5]; [12]): 1.2 mg/g and 1.3 mg/g
